Key:
[1] = test system: T-Rex 293 cell line SC3 cells having increased expression of androgen receptor protein due to exposure to doxycycline; test: Cellular growth inhibition, T-Rex 293 SC3 cells with doxycycline-induced androgen receptor (CellTiter-Glo 2.0, 72 hours); format: cell-based; conditions: T-Rex 293 SC3 cells with 10 ng/ml doxycycline (increased androgen receptor expression), 72 hours, CellTiter-Glo 2.0
[2] = test system: T-Rex 293 cell line SC3 cells lacking increased expression of androgen receptor protein; test: Cellular growth inhibition, T-Rex 293 SC3 cells without doxycycline (CellTiter-Glo 2.0, 72 hours); format: cell-based; conditions: T-Rex 293 SC3 cells not exposed to doxycycline (no increased androgen receptor expression)
VCaP cells = test: Cellular growth inhibition assay for VCaP cells (CellTiter-Glo 2.0, 72 hours); format: cell-based, human; conditions: CellTiter-Glo 2.0

Measured: GI50

COC[C@@H]1N=C(c2ccc(C#CC3CC4(C3)CN(c3ccc(C(=O)N[C@H]5CC[C@H](Oc6ccc(C#N)c(OC)c6)CC5)nn3)C4)cc2)c2c(sc(C)c2C)-n2c(C)nnc21 [Compound I-32, N-[4-(4-cyano-3-methoxy-phenoxy)cyclohexyl]-6-[6-[2-[4-[(9R)-9-(methoxymethyl)-4,5,13-trimethyl-3-thia-1,8,11,12-tetrazatricyclo[8.3.0.0^2,6]trideca-2 (6),4,7,10,12-pentaen-7-yl]phenyl]ethynyl]-2-azaspiro[3.3]heptan-2-yl]pyridazine-3-carboxamide]
< 500 nM: [1] | [2]; 72 h | VCaP cells; Homo sapiens, VCaP, 72 h

COCC[C@@H]1N=C(c2ccc(C#CC3CC4(C3)CN(c3ccc(C(=O)N[C@H]5CC[C@H](Oc6ccc(C#N)c(OC(F)(F)F)c6)CC5)nn3)C4)cc2)c2c(sc(C)c2C)-n2c(C)nnc21 [Compound I-33]
< 500 nM: [1] | [2] | VCaP cells; 72 hours

COc1cc(O[C@H]2CC[C@H](NC(=O)c3cnc(N4CCC5(CCC(c6ccc(C7=N[C@@H](C)c8nnc(C)n8-c8sc(C)c(C)c87)cc6)CC5)C4)nc3)CC2)ccc1C#N (stereo partly drawn) [Compound I-35]
< 500 nM: [1] | [2]; 72 h | VCaP cells; Homo sapiens, VCaP, 72 h

COc1cc(O[C@H]2CC[C@H](NC(=O)c3ccc(N4CCC5(CCC(c6ccc(C7=N[C@@H](C)c8nnc(C)n8-c8sc(C)c(C)c87)cc6)CC5)C4)nc3)CC2)ccc1C#N (stereo partly drawn) [Compound I-36]
< 500 nM: [1] | [2]; 72 h | VCaP cells; Homo sapiens, VCaP, 72 h

COc1cc(O[C@H]2CC[C@H](NC(=O)c3cnc(N4CCC5(CCN(c6ccc(C7=N[C@@H](C)c8nnc(C)n8-c8sc(C)c(C)c87)cc6)CC5)C4)nc3)CC2)ccc1C#N [Compound I-37, N-((1r,4r)-4-(4-cyano-3-methoxyphenoxy)cyclohexyl)-2-(8-(4-((S)-2,3,6,9-tetramethyl-6H-thieno[3,2-f][1,2,4]triazolo[4,3-a][1,4]diazepin-4-yl)phenyl)-2,8-diazaspiro[4.5]decan-2-yl)pyrimidine-5-carboxamide]
< 500 nM: [1] | [2]; 72 h | VCaP cells; Homo sapiens, VCaP, 72 h

COc1cc(O[C@H]2CC[C@H](NC(=O)c3ccc(N4CCC5(CCN(c6ccc(C7=N[C@@H](C)c8nnc(C)n8-c8sc(C)c(C)c87)cc6)CC5)C4)nc3)CC2)ccc1C#N [Compound I-38]
< 500 nM: [1] | [2]; 72 h | VCaP cells; Homo sapiens, VCaP, 72 h

COc1cc(O[C@H]2CC[C@H](NC(=O)c3cnc(N4CCC5(CCN(c6ccc(C7=N[C@@H](C)c8nnc(C)n8-c8sc(C)c(C)c87)cc6)CC5)C4)cn3)CC2)ccc1C#N [Compound I-39, N-((1r,4r)-4-(4-cyano-3-methoxyphenoxy)cyclohexyl)-5-(8-(4-((S)-2,3,6,9-tetramethyl-6H-thieno[3,2-f][1,2,4]triazolo[4,3-a][1,4]diazepin-4-yl)phenyl)-2,8-diazaspiro[4.5]decan-2-yl) pyrazine-2-carboxamide]
< 500 nM: [1] | [2]; 72 h | VCaP cells; Homo sapiens, VCaP, 72 h

COc1cc(O[C@H]2CC[C@H](NC(=O)c3ccc(N4CC5(CC(C#Cc6ccc(C7=N[C@@H](C)c8nnc(C)n8-c8sc(C)c(C)c87)cc6)C5)C4)nn3)CC2)ccc1C#N [Compound I-40, N-[4-(4-cyano-3-methoxy-phenoxy)cyclohexyl]-6-[6-[2-[4-[(9S)-4,5,9,13-tetramethyl-3-thia-1,8,11,12-tetrazatricyclo[8.3.0.0^2,6]trideca-2 (6),4,7,10,12-pentaen-7-yl]phenyl]ethynyl]-2-azaspiro[3.3]heptan-2-yl]pyridazine-3-carboxamide]
< 500 nM: [1] | [2]; 72 h | VCaP cells; Homo sapiens, VCaP, 72 h

Reference: US12668599B2, “Heterobifunctional compounds and methods of treating disease” (Halda Therapeutics OpCo, Inc., priority 2023, dated 2026)
